Values quoted from earlier work in patent US8193207B2, “Lactam compounds and methods of using the same” (Incyte Corporation, priority 2005, dated 2012).

Biological target: T1, 11βHSD1 in the eye (Homo sapiens, UniProt P28845)
T1 construct: host or cells: eye tissue (non-pigmented epithelial cells) of healthy volunteers, in vivo
Conditions: healthy volunteers; after seven days of carbenoxolone treatment

T1 sequence (P28845 whole entry): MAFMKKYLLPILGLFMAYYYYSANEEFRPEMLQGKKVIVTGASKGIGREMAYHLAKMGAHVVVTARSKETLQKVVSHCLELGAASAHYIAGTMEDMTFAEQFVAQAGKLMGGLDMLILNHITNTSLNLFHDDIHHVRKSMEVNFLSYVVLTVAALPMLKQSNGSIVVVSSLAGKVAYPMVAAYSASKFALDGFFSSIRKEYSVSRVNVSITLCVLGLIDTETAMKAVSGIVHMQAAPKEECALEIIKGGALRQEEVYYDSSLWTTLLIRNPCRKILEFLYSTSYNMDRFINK

For `CC1(C)[C@@H](OC(=O)CCC(=O)O)CC[C@]2(C)[C@H]3C(=O)C=C4[C@@H]5C[C@@](C)(C(=O)O)CC[C@]5(C)CC[C@@]4(C)[C@]3(C)CC[C@@H]12` [carbenoxolone], the IOP reduction is given as 18%.
